Results reported in patent US20120214784A1, “SPIROPIPERIDINE COMPOUNDS AS ORL-1 RECEPTOR ANTAGONISTS” (ELI LILLY AND COMPANY, priority 2009, published 2012).

Key:
[1] = target: T1, cloned human ORL1/nociceptin receptors (Homo sapiens, UniProt P41146); assay: Functional blockade of agonist-mediated G-protein activation, GTP-γ-[35S] binding; assay type: biochemical
T1 construct: expressed in transfected cells
Excerpt: Agonist-mediated stimulation of G-protein coupled receptors results in the activation of membrane associated Gαβγ-protein heterotrimer complexes, and represents the first step in the transduction of extracellular signals to modification of intracellular pathways. The first step in activation of receptor-mediated activation of Gαβγ-proteins heterotrimer is the exchange of Gα subunit bound guanosine diphoshpate (GDP) for guanosine triphosphate (GTP). The binding of GTP to the Gα subunit causes dissociation of the heterotrimer subunits, Gβ and Gγ, resulting in the modulation of several intracellular signaling cascades. Measurement of receptor-mediated G-protein activation can be measured using the non-hydrolyzable radiolabeled analog of GTP, GTP-γ-[35S]. Utilizing this methodology, antagonist affinity (Kb) is measured in membranes expressing cloned human ORL1/nociceptin receptors using a GTP-γ-[35S] binding assay according to previously described protocols with minor modifications (DeLapp et al., J Pharmacol Exp Ther. 1999 May; 289(2):946-55; Ozaki et al., Eur J Pharmacol. 2000 Aug. 18; 402(1-2):45-53). Assays are conducted in a 200-μl volume with the following buffer composition: 100 mM NaCl, 20 mM HEPES, 5 mM MgCl2, 1 mM EDTA, 0.1% BSA, 3 μM GDP, 0.5 nM [^35S]GTPγS. ORL1 receptor membrane suspension is added at a concentration of 20 μg protein per well and receptor stimulation is achieved using 300 nM nociceptin/OFQ. Wheat germ agglutinin coated SPA beads (Amersham, Arlington Hts., Ill.) are added at 1 mg per well to detect membrane-bound [^35S]GTPγS. Plates are sealed and incubated for 2 hr. at room temperature. Plates are then placed at 4° C. overnight to allow the SPA beads to settle and then counted in a Wallac Microbeta. Specific [^35S]GTPγS binding is determined as the difference in CPM observed in the absence and presence of 10 μM unlabeled GTPγS. Data are plotted as the percent of specific [^35S]GTPγS bound. Curves are plotted as the percent of specific binding and IC50 values are determined using a sigmoidal dose response curve with variable slope. Antagonist affinity (Kb) is estimated according to DeLapp et al., 1999 using a modification of the equation of Cheng and Prusoff (1973) where Kb=IC50×(1+D×EC50^−1)^−1.

[2] = target: human ERG (hERG) K+ channel (Homo sapiens, UniProt Q12809); assay: hERG channel [3H]astemizole binding assay
human ERG (hERG) K+ channel, sequence (Q12809 whole entry): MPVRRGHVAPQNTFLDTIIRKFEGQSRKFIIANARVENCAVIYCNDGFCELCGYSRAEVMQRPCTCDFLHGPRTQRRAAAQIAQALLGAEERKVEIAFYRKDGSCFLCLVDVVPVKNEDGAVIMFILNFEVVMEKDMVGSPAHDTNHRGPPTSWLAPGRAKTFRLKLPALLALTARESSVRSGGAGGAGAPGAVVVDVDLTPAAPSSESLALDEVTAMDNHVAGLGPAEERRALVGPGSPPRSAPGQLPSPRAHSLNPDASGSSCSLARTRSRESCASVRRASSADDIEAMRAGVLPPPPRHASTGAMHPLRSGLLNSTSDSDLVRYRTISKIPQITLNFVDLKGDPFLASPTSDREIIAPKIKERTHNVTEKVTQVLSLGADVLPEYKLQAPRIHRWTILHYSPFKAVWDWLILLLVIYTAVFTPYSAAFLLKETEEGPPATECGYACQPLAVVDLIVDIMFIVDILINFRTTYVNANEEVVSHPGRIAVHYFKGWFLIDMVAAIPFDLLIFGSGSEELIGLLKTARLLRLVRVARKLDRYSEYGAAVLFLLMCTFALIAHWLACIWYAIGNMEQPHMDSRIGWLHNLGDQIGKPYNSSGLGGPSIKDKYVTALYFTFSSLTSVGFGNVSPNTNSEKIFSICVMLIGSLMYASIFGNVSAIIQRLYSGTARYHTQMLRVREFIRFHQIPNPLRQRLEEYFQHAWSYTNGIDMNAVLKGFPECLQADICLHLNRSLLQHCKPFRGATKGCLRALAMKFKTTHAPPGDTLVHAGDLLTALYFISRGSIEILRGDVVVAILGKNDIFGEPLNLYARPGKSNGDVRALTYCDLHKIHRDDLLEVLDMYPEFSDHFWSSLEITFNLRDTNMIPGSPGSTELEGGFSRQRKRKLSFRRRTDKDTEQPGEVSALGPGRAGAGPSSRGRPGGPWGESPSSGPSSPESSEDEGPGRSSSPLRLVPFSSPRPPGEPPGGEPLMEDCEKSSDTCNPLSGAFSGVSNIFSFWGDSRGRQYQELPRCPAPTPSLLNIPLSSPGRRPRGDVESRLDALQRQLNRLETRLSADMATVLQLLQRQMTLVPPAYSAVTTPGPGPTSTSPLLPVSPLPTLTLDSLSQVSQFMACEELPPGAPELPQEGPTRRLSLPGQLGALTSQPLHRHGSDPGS
Protocol: Blockade of K^+-channel conductance in the heart is associated with cardiotoxicity in the form of QT-wave prolongation. The affinity (Ki) of the exemplified nociceptin receptor antagonists for the human ERG (hERG) K^+ channel is determined in HEK293 cells expressing cloned hERG using the hERG channel antagonist radioligand [3H]astemizole (2 nM final assay concentration) according to well known procedures (see for example Finlayson K, et al. (Eur J Pharmacol. 412(3):203-12, 2001) [3H]Astemizole binding assays are performed at the contract research company Cerep (Paris France) according to standard procedures.

Delta Opioid = Delta Opioid (Homo sapiens, UniProt P41143); assay: Radioligand binding selectivity; conditions: Delta Opioid; read-out: Ki
Delta Opioid, sequence (P41143 whole entry): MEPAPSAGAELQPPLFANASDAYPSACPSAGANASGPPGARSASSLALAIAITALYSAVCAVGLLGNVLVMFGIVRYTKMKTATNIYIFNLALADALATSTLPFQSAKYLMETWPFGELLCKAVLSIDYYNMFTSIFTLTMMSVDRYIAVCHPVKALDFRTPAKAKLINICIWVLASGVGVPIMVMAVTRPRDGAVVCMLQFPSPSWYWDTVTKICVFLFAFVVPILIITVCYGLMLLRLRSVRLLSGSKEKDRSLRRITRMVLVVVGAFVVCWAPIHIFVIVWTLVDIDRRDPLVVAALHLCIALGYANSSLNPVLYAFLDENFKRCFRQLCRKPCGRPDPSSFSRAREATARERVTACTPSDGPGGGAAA
Protocol: (§1) Radioligand binding assays are commonly used to determine the affinity (Ki) or potency of a compound to bind to a particular receptor or target protein. A filtration-based [3H]-OFQ/nociceptin receptor binding assay is developed based on previous assay formats (Ardati A, Henningsen R A, Higelin J, Reinscheid R K, Civelli O, Monsma F J Jr. Mol. Pharmacol. 1997 May; 51(5):816-24.) with minor modifications. [3H]-OFQ/nociceptin binding assays are carried out in deep-well 96-well plates. [^3H]OFQ (final assay concentration 0.2 nM) competition studies are carried out with 5-10 μg of membrane protein (isolated from Chinese hamster ovary cells (CHO cells) expressing cloned human ORL1 receptors) in a final assay volume of 0.5 mL of buffer containing 20 mM HEPES, pH 7.4, 5 mM MgCl2, 1 mM EGTA, 100 mM NaCl, 0.1% bovine serum albumin. Samples are incubated for 60 min. at room temperature, which is found to be optimal for competition assays. The assays are terminated by filtration through glass fiber filters (Wallac filtermat A) [pretreated with 0.3% polyethylenimine (Sigma) for 1 hr] on a Tometc cell harvester, and the filters are washed three times with 5 mL of ice-cold 50 mM Tris.HCl, pH 7.4. Filtermats are then dried and imbedded with Meltilex scintillant A and the radioactivity counted in a Wallac Microbeta scintillation counter. Specific binding is determined by displacement with 100 nM unlabeled nociceptin. Curves are plotted as the percent of specific binding and IC50 values are determined using a sigmoidal dose response curve with variable slope. K, values are calculated from the IC50 by the equation of Cheng and Prusoff (Cheng, Y. C., and Prusoff, W. H., Biochem. Pharmacol. 22, 3099-3108 (1973)) where Ki=IC50×(1+D×Kd^−1)^−1. Similarly, Ki for the mu, kappa and delta opioids, serotonin, adrenergic, and muscarinic receptors may be determined using membranes expressing the desired receptor and appropriate corresponding radioligand competitor molecules.

Mu Opioid = Mu Opioid (Homo sapiens, UniProt P35372); assay: Radioligand binding selectivity; conditions: Mu Opioid; read-out: Ki
Mu Opioid, sequence (P35372 whole entry): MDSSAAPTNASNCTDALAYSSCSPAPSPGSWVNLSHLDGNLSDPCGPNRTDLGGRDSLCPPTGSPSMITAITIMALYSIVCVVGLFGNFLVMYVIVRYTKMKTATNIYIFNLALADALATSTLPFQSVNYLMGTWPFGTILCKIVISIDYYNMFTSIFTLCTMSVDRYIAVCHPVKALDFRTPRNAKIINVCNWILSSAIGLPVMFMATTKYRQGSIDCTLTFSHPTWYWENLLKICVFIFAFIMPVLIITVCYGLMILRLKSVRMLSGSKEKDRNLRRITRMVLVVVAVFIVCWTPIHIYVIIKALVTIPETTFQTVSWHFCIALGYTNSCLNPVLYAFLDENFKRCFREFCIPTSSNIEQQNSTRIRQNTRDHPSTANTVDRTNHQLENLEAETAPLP
Protocol: as §1

Kappa Opioid = Kappa Opioid (Homo sapiens, UniProt P41145); assay: Radioligand binding selectivity; conditions: Kappa Opioid; read-out: Ki
Kappa Opioid, sequence (P41145 whole entry): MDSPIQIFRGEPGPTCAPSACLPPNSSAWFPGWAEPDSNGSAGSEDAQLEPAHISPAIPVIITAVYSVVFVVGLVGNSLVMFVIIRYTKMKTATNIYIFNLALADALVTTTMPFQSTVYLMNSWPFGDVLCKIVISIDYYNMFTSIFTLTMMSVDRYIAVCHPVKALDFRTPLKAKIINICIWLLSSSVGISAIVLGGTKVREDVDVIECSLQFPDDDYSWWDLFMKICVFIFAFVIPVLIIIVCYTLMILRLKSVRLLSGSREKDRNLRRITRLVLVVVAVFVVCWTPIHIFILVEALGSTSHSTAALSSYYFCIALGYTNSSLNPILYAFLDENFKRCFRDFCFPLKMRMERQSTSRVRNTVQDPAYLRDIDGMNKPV
Protocol: as §1

[3] = target: T2, cloned human ORL1 receptors (Homo sapiens, UniProt P41146); assay: [3H]-OFQ/nociceptin receptor binding assay
T2 construct: expressed in transfected cells; host or cells: CHO cells (membranes)
T2 sequence (P41146 whole entry): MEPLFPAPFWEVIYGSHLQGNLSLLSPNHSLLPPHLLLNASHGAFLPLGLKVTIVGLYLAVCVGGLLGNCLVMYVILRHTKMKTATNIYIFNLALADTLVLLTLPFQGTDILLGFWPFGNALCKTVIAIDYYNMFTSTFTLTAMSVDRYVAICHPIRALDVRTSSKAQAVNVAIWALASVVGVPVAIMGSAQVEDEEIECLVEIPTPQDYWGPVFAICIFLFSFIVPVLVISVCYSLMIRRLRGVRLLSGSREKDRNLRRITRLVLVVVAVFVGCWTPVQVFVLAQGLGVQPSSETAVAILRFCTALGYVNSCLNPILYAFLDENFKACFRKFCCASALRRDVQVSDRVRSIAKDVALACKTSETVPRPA
Protocol: as §1

[4] = test system: NIH-Swiss mice; 129S6 wild type and nociceptin/ORL1 receptor knockout mice; assay: Forced-swim test in mice (mFST); assay type: in vivo, mouse; conditions: mFST
Excerpt: Forced-Swim Test in Mice (mFST) mFST is an established in vivo assay for antidepressant activity (Li et al. J Pharmacol Exp Ther. 319(1):254-9, 2006.). […] The mFST was used to evaluate potential antidepressant-like activity of novel nociceptin/ORL1 antagonists according to previously published methods (Li et al. J Pharmacol Exp Ther. 319(1):254-9, 2006.). Briefly, male NIH-Swiss mice (Harlan Sprague-Dawley, Indianapolis, Ind.) weighing between 25-30 g are used. Group housed animals are removed from the vivarium to the testing area in their own cages and allowed to adapt to the new environment for at least 1 hour before testing. Alternatively, male 129S6 wild type and nociceptin/ORL1 receptor knockout mice were used to confirm dependence of the response to compound was nociceptin/ORL1 receptor dependent. All compounds are prepared in 20% Captisol, 25 mM phosphate buffer, pH 2.0 on the day of use. Mice are placed in a cylinder (diameter: 10 cm; height: 25 cm) filled with 6 cm of water (22-25° C.) for 6 min. The duration of immobility during the last 4 min. of the 6 min. period of the test was scored. A mouse is recorded as immobile when floating motionless or making only those movements necessary to keep its head above water.

[5] = target: T3, nociceptin/ORL1 receptors (Rattus norvegicus, UniProt P35370); assay: In vivo receptor occupancy (LC/MS/MS, RO Tracer) in hypothalamus; conditions: oral 3 mg/kg dose after 6 hr.
T3 construct: rats are sacrificed by cervical dislocation and the hypothalamus is removed; from tissue; host or cells: rat hypothalamus (in vivo occupancy)
T3 sequence (P35370 whole entry): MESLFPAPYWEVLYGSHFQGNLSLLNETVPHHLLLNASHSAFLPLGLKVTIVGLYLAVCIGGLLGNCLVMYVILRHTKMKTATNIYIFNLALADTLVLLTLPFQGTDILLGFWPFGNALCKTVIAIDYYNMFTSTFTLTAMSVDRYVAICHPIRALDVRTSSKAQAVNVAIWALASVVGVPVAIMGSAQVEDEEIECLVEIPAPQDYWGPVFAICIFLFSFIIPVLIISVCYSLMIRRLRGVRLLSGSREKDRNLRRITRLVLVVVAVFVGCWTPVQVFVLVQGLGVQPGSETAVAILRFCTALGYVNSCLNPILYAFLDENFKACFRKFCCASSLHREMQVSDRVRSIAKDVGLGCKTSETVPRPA

[6] = test system: wild type and ORL knockout mice; assay: Blockade of fasting-induced hyperphagia in mice; assay type: in vivo, mouse; conditions: wild type mice, oral gavage 30 min. prior to food, food intake 1 hr
Excerpt: Blockade of fasting-induced hyperphagia in rats is an accepted model for hyperphagic eating disorders. […] Mice are individually housed a minimum of 3 days prior to the onset of testing to eliminate any effects of stress due to the change from group to individual housing. Three mice/genotype are randomly assigned to each treatment group on the test day. Pre-fast body weight measurements are taken, and food is then removed from cages overnight. Mice are fasted for approximately 15 hr. The next morning, the mice are given one of three doses of drug or vehicle via oral gavage 30 min. prior to gaining access to food. Drugs are dissolved in 20% Captisol dissolved in 25 mM phosphate buffer, pH 2.0. Measurements of body weight are taken immediately prior to drug treatment or 24 hr. after access to food is restored. […] Measurements of food intake are recorded 1 hr following access to food, as indicated, by weight of food remaining at 1 hr. It should be noted that food intake measured is during the light phase, a time during which mice are typically at rest and not normally eating. Following initial testing, mice are rested for 1 week with access to unlimited chow.

[7] = Rat hepatic microsomal glutathione trapping assay; assay type: in vitro ADME; conditions: hepatic microsomal homogenate, glutathione as nucleophile
Excerpt: Assuming that reactive metabolites may play a role in clinical IDRs, minimizing the potential for oxidative bioactivation has been proposed as a means of improving the overall safety profile of compounds containing structural features associated with such reactivity. (see Baillie, Thomas A., Approaches to the Assessment of Stable and Chemically Reactive Drug Metabolites in Early Clinical Trials, Chemical Research in Toxicology, vol 22(2) 2009.) To this end, representative compounds of the present invention and related compounds are screened using a rat hepatic microsomal trapping assay, using glutathione as an endogenous nucleophile, to understand the potential for oxidative bioactivation of the thienyl moiety. […] Of the compounds tested, those wherein R^2a and R^2b are fluoro are found to not show glutathione conjugate formation.

T1 sequence (P41146 whole entry): as the sequence (P41146 whole entry) above

For `CC(=O)c1cccc(F)c1-n1cc(CN2CCC3(CC2)OCC(F)(F)c2cc(Cl)sc23)c(C)n1` [Example 40, 1-(2-(4-((2′-Chloro-4′,4′-difluoro-4′,5′-dihydrospiro[piperidine-4,7′-thieno[2,3-c]pyran]-1-yl)methyl)-3-methyl-1H-pyrazol-1-yl)-3-fluorophenyl)ethanone], the Kb [1] was 0.3 nM, the Ki [2] was 1080 nM and the Ki (Delta Opioid) was > 479 nM. For the same compound, the Ki (Mu Opioid) was > 451 nM, the Ki (Kappa Opioid) was > 430 nM and the Ki [3] was 0.25 nM. For the same compound, the “maximum effect, reduction in immobilization time” value [4] was 50%, the ED60 ([4]; immobility time) was 23 nM and the receptor occupancy at 3 mg/kg [5] was 70%. For the same compound, the fasting-induced hyperphagia [6] was “substantially block fasting-induced hyperphagia”.
`Cc1nn(-c2c(F)cccc2-n2ccnc2C)cc1CN1CCC2(CC1)OCC(F)(F)c1cc(Cl)sc12.O=C(O)C(O)C(O)C(=O)O` [Example 47, 2-Chloro-4,4-difluoro-1′-[[1-[2-fluoro-6-(2-methylimidazol-1-yl)phenyl]-3-methyl-pyrazol-4-yl]methyl]spiro[5H-thieno[2,3-c]pyran-7,4′-piperidine] (L)-Tartrate] showed a Kb [1] of 0.15 nM, a Ki [3] of 0.26 nM and a receptor occupancy at 3 mg/kg [5] of 84%. The fasting-induced hyperphagia [6] was “substantially block fasting-induced hyperphagia”.
With `Cc1nn(-c2c(F)cccc2C(N)=O)cc1CN1CCC2(CC1)OCC(F)(F)c1cc(F)sc12.O=C(O)C(O)C(O)C(=O)O` [Example 18, 3-fluoro-2-[3-methyl-4-[(2,4,4-trifluorospiro[5H-thieno[2,3-c]pyran-7,4′-piperidine]-1′-yl)methyl]pyrazol-1-yl]benzamide (L)-Tartrate] the Glutathione conjugate formation [7] was “No”.
In the case of `Cc1nn(-c2c(F)cccc2C(N)=O)cc1CN1CCC2(CC1)OCCc1cc(F)sc12.O=C(O)C(O)C(O)C(=O)O` [Example 9, 3-fluoro-2-[4-[(2-fluorospiro[4,5-dihydrothieno[2,3-c]pyran-7,4′-piperidine]-1′-yl)methyl]-3-methyl-pyrazol-1-yl]benzamide (L)-Tartrate], the Glutathione conjugate formation [7] is reported as “Yes”.
With `Cc1nn(-c2c(F)cccc2C(N)=O)cc1CN1CCC2(CC1)OCCc1c2sc(F)c1F.O=C(O)C(O)C(O)C(=O)O` [3-fluoro-2-[4-[(2,3-difluorospiro[4,5-dihydrothieno[2,3-c]pyran-7,4′-piperidine]-1′-yl)methyl]-3-methyl-pyrazol-1-yl]benzamide (L) Tartrate, reference compound] the Glutathione conjugate formation [7] was “Yes”.
